ChEMBL document CHEMBL3046173, “Synthesis, structure, anticancer, and antioxidant activity of para-xylyl linked bis-benzimidazolium salts and respective dinuclear Ag(I) N-heterocyclic carbene complexes (Part-II)” (Med Chem Res, 2013)

Tests used:
[1] = system: HCT-116; experiment: Cytotoxicity against Homo sapiens (human) HCT116 cells assessed as growth inhibition after 48 hr by MTT assay; type: functional, cell-based; conditions: for IC50: HCT-116, 48 h
[2] = system: Radical scavenging activity; experiment: Antioxidant activity assessed as inhibition of DPPH free radicals at 400 uM after 30 min by microplate reader analysis relative to control; type: functional

SMILES | growth inhibition (GI) [1] | IC50 [1] | inhibition [2]
O=c1[nH]cc(F)c(=O)[nH]1 [FLUOROURACIL] | Dose-dependent effect | 19.2 µM | 
O=C(O)c1cc(O)c(O)c(O)c1 |  |  | 77.7%
c1ccc2[nH]cnc2c1 [BENZIMIDAZOLE] | Dose-dependent effect | > 200 µM | 21%
CCCCCCCCCn1c[n+](Cc2ccc(C[n+]3cn(CCCCCCCCC)c4ccccc43)cc2)c2ccccc21 | Dose-dependent effect | 2.8 µM | 14.8%
CCCCCCCCCCn1c[n+](Cc2ccc(C[n+]3cn(CCCCCCCCCC)c4ccccc43)cc2)c2ccccc21 | Dose-dependent effect | 3.3 µM | 13.7%
CCCCCCCCn1c[n+](Cc2ccc(C[n+]3cn(CCCCCCCC)c4ccccc43)cc2)c2ccccc21 | Dose-dependent effect | 0.9 µM | 17.9%
